Measurements taken from ChEMBL document CHEMBL1145498, “A systematic interaction map of validated kinase inhibitors with Ser/Thr kinases” (Proc Natl Acad Sci U S A, 2007).

Experiments:
[1] = biological target: Serine/threonine-protein kinase PAK 5 (Homo sapiens) (UniProt Q9P286)
[2] = biological target: T1, Dual specificity mitogen-activated protein kinase kinase 6 (Homo sapiens) (UniProt P52564)
T1 sequence (whole entry): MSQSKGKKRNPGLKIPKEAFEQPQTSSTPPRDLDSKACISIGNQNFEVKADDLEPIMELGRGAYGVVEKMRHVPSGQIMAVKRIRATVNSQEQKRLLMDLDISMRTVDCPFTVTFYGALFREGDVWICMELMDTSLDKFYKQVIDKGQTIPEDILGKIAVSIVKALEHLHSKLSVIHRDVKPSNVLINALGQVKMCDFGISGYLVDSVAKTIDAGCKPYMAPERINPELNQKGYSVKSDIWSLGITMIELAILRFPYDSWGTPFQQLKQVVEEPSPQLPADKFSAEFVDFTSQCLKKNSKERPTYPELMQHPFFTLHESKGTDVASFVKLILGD

[3] = biological target: Cyclin-dependent kinase 6 (Homo sapiens) (UniProt Q00534)
Sequence of Cyclin-dependent kinase 6 (Homo sapiens) (Q00534 whole entry): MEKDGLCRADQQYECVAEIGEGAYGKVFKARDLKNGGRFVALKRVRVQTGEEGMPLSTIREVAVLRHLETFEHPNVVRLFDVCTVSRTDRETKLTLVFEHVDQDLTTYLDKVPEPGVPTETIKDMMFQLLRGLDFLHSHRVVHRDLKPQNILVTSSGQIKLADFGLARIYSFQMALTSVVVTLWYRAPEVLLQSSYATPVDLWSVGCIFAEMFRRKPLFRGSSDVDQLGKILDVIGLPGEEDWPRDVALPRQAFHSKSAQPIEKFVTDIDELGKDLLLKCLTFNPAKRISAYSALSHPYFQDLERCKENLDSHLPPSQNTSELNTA

[4] = biological target: Ribosomal protein S6 kinase alpha-3 (Homo sapiens) (UniProt P51812)
[5] = biological target: Casein kinase I isoform gamma-3 (Homo sapiens) (UniProt Q9Y6M4)
[6] = biological target: Calcium/calmodulin-dependent protein kinase type II subunit alpha (Homo sapiens) (UniProt Q9UQM7)
[7] = biological target: Serine/threonine-protein kinase pim-3 (Homo sapiens) (UniProt Q86V86)
[8] = biological target: Serine/threonine-protein kinase RIO2 (Homo sapiens) (UniProt Q9BVS4)
[9] = biological target: Dual specificity mitogen-activated protein kinase kinase 2 (Homo sapiens, UniProt P36507)
Sequence of Dual specificity mitogen-activated protein kinase kinase 2 (P36507 whole entry): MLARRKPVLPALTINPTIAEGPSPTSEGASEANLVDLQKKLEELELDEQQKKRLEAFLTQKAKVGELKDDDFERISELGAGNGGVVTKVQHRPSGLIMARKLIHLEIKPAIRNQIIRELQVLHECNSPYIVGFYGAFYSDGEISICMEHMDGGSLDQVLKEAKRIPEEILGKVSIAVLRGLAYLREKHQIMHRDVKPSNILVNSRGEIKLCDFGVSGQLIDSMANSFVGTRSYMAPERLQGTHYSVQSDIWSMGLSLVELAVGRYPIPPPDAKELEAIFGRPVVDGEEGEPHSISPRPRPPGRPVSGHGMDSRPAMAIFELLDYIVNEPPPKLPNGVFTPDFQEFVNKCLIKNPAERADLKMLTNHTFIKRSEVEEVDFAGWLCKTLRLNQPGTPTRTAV

[10] = biological target: Dual specificity protein kinase CLK1 (Homo sapiens) (UniProt P49759)
[11] = biological target: STE20-like serine/threonine-protein kinase (Homo sapiens) (UniProt Q9H2G2)
[12] = biological target: Cyclin-dependent kinase-like 1 (Homo sapiens) (UniProt Q00532)
Sequence of Cyclin-dependent kinase-like 1 (Homo sapiens) (Q00532 whole entry): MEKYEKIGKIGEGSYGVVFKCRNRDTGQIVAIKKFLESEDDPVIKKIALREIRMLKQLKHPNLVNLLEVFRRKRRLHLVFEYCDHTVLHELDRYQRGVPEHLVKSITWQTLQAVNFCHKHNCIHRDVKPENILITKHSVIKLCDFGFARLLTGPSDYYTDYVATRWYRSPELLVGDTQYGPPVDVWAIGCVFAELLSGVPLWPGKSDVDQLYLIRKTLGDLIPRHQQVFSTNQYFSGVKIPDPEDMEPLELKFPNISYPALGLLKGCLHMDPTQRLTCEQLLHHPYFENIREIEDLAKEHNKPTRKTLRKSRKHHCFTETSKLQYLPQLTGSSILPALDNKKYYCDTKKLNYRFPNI

[13] = biological target: Serine/threonine-protein kinase 26 (Homo sapiens) (UniProt Q9P289)
[14] = biological target: T2, Serine/threonine-protein kinase VRK1 (Homo sapiens) (UniProt Q99986)
T2 sequence (whole entry): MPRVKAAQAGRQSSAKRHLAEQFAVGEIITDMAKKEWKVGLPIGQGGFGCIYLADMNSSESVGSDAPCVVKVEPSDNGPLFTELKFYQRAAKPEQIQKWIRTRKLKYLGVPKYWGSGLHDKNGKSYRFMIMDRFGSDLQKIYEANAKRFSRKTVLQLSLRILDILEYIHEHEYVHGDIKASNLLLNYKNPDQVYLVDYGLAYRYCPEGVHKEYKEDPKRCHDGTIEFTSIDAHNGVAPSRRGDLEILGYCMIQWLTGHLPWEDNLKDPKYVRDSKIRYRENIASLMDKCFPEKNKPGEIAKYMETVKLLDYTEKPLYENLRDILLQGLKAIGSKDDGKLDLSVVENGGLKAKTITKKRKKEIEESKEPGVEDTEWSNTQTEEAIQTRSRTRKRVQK

[15] = biological target: Death-associated protein kinase 3 (Homo sapiens) (UniProt O43293)
[16] = biological target: Calcium/calmodulin-dependent protein kinase type II subunit delta (Homo sapiens) (UniProt Q13557)
Sequence of Calcium/calmodulin-dependent protein kinase type II subunit delta (Homo sapiens) (Q13557 whole entry): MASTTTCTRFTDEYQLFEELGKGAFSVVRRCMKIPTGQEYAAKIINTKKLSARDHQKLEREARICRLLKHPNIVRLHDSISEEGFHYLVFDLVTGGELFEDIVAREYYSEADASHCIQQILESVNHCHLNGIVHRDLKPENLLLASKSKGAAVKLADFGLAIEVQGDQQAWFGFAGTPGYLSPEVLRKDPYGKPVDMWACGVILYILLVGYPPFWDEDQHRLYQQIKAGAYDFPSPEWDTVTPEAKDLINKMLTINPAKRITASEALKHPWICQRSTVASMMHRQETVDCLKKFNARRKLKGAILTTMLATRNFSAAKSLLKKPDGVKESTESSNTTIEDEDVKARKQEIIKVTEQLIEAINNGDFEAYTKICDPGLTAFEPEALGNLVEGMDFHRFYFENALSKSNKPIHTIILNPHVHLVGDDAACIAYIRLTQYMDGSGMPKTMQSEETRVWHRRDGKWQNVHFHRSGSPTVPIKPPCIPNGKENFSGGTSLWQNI

[17] = biological target: 5'-AMP-activated protein kinase catalytic subunit alpha-2 (Homo sapiens) (UniProt P54646)
[18] = biological target: Calcium/calmodulin-dependent protein kinase type II subunit gamma (Homo sapiens) (UniProt Q13555)
Sequence of Calcium/calmodulin-dependent protein kinase type II subunit gamma (Homo sapiens) (Q13555 whole entry): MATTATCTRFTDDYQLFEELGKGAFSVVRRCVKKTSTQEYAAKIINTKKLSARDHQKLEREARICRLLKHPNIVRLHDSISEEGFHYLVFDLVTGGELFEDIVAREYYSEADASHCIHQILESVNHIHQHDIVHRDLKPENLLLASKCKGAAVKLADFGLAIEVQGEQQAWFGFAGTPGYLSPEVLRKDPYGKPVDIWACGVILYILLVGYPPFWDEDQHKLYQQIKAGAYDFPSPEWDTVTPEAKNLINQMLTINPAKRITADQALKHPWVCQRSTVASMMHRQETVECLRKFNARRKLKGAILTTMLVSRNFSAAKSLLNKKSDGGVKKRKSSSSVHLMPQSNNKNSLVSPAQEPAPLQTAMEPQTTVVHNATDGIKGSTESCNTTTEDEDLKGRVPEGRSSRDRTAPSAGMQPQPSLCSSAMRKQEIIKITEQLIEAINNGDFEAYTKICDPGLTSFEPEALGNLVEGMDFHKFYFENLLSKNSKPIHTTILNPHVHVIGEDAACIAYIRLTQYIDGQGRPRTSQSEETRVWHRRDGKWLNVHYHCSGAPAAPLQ

[19] = biological target: Serine/threonine-protein kinase OSR1 (Homo sapiens) (UniProt O95747)
[20] = biological target: Tyrosine-protein kinase JAK1 (Homo sapiens) (UniProt P23458)
[21] = biological target: T3, Serine/threonine-protein kinase VRK3 (Homo sapiens) (UniProt Q8IV63)
T3 sequence (whole entry): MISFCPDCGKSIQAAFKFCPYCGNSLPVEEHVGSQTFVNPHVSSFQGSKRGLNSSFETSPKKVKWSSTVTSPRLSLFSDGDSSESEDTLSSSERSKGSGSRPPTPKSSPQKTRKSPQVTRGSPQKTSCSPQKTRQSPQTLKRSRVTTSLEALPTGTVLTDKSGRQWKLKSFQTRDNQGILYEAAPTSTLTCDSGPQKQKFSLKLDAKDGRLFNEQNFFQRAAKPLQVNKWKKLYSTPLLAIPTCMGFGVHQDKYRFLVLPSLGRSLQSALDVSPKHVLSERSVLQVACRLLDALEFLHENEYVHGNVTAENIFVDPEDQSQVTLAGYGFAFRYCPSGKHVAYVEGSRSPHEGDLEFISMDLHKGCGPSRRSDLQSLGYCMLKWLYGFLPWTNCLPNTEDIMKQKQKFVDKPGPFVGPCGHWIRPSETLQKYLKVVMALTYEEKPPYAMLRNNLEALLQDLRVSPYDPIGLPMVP

[22] = biological target: Casein kinase I isoform gamma-2 (Homo sapiens) (UniProt P78368)
Sequence of Casein kinase I isoform gamma-2 (Homo sapiens) (P78368 whole entry, looked up, canonical isoform): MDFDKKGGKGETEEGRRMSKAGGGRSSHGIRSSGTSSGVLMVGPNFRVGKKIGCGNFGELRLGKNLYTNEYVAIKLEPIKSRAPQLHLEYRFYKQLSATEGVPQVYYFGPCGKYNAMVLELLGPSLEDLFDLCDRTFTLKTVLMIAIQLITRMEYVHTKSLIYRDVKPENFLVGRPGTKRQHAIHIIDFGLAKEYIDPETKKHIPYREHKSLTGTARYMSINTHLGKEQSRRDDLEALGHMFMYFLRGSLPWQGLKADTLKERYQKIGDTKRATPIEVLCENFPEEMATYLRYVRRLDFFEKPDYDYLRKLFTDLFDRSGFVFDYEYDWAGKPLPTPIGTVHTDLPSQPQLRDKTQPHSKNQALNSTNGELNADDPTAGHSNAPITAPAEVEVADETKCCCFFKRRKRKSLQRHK

[23] = biological target: Mitogen-activated protein kinase 3 (Homo sapiens, UniProt P27361)
[24] = biological target: Serine/threonine-protein kinase 38 (Homo sapiens) (UniProt Q15208)
[25] = biological target: Serine/threonine-protein kinase Chk2 (Homo sapiens, UniProt O96017)
[26] = biological target: Serine/threonine-protein kinase PLK1 (Homo sapiens) (UniProt P53350)
Sequence of Serine/threonine-protein kinase PLK1 (Homo sapiens) (P53350 whole entry): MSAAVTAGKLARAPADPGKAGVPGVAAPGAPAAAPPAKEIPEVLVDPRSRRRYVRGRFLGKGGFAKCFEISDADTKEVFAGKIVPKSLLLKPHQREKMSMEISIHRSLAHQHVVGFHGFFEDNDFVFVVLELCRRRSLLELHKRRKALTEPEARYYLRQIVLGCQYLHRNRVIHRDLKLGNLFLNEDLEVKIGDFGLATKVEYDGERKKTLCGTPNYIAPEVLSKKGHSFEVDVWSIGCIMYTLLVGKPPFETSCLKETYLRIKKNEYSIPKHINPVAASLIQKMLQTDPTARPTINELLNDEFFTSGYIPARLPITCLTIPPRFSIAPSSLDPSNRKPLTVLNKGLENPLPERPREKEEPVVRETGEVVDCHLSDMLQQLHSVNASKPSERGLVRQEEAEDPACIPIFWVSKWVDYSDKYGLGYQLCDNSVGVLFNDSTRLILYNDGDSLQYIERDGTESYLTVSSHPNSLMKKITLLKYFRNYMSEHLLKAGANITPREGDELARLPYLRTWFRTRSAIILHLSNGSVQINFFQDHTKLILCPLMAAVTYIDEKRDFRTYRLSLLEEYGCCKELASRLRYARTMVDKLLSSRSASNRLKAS

[27] = biological target: Cyclin-dependent kinase 16 (Homo sapiens) (UniProt Q00536)
Sequence of Cyclin-dependent kinase 16 (Homo sapiens) (Q00536 whole entry): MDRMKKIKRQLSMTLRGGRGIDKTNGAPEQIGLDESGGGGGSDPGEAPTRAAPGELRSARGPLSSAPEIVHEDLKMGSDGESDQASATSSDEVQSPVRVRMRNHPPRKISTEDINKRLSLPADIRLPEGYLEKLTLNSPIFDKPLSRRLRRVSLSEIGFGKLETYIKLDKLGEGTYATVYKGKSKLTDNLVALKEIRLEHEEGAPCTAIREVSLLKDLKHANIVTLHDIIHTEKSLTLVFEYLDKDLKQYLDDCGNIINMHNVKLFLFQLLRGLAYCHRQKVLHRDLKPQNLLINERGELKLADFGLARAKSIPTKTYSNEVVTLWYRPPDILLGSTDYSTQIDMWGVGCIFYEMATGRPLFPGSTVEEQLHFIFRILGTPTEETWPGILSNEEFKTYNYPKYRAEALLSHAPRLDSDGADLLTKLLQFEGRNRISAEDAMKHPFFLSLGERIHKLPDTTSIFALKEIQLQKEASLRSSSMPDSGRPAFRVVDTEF

[28] = biological target: Calcium/calmodulin-dependent protein kinase type II subunit beta (Homo sapiens) (UniProt Q13554)
Sequence of Calcium/calmodulin-dependent protein kinase type II subunit beta (Homo sapiens) (Q13554 whole entry): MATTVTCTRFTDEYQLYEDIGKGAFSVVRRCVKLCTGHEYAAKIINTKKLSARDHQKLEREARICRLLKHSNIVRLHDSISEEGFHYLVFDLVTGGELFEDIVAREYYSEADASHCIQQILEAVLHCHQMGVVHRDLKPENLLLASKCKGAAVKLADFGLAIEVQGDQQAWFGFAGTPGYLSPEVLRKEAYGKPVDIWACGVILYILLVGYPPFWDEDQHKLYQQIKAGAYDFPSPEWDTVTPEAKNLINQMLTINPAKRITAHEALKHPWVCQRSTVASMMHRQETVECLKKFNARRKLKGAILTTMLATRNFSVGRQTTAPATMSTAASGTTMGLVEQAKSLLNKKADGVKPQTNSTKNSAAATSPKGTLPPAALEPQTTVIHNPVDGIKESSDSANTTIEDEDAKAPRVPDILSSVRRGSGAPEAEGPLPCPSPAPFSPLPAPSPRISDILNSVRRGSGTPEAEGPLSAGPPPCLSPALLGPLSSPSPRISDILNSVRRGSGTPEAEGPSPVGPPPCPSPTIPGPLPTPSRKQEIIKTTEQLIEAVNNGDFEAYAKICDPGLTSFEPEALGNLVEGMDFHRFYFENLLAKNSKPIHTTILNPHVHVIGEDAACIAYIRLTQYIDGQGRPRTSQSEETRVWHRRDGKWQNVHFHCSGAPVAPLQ

[29] = biological target: Cyclin-dependent kinase 2 (Homo sapiens, UniProt P24941)

## Cl.Cn1cc(C2=C(c3ccc4cc5n(c4c3)CCC(CN)C5)C(=O)NC2=O)c2ccccc21 (stereo not drawn)
[1]
  ΔTm: 0.1 °C
[2]
  ΔTm: 1.1 °C
[3]
  ΔTm: 1 °C
[4]
  ΔTm: 0.1 °C
[5]
  ΔTm: 0.6 °C
[6]
  ΔTm: 1.4 °C
[7]
  ΔTm: 4.7 °C
[8]
  ΔTm: -0.2 °C
[9]
  ΔTm: 0.1 °C
[10]
  ΔTm: 1 °C
[11]
  ΔTm: 4.5 °C
[12]
  ΔTm: 0.2 °C
[13]
  ΔTm: 1.2 °C
[14]
  ΔTm: 0.8 °C
[15]
  ΔTm: 0.7 °C
[16]
  ΔTm: -0.5 °C
[17]
  ΔTm: -0.4 °C
[18]
  ΔTm: 1.1 °C
[19]
  ΔTm: -0.1 °C
[20]
  ΔTm: -2.8 °C
[21]
  ΔTm: 0.6 °C
[22]
  ΔTm: 0.4 °C
[23]
  ΔTm: -0.5 °C
[24]
  ΔTm: 0.4 °C
[25]
  ΔTm: 1 °C
[26]
  ΔTm: 0.1 °C
[27]
  ΔTm: 2.9 °C
[28]
  ΔTm: 1.2 °C
[29]
  ΔTm: 2.4 °C

## CC(C)(C)n1nc(-c2ccc(Cl)cc2)c2c(N)ncnc21
[1]
  ΔTm: 0.7 °C
[2]
  ΔTm: 2.1 °C
[3]
  ΔTm: -0.4 °C
[4]
  ΔTm: 0.4 °C
[5]
  ΔTm: 0.6 °C
[6]
  ΔTm: 0.5 °C
[7]
  ΔTm: 0.7 °C
[8]
  ΔTm: 3.1 °C
[9]
  ΔTm: 3.3 °C
[10]
  ΔTm: 2.1 °C
[11]
  ΔTm: 3.6 °C
[12]
  ΔTm: -0.4 °C
[13]
  ΔTm: -0.5 °C
[14]
  ΔTm: 0 °C
[15]
  ΔTm: -1.1 °C
[16]
  ΔTm: -0.1 °C
[17]
  ΔTm: 0.7 °C
[18]
  ΔTm: 0.4 °C
[19]
  ΔTm: 1.2 °C
[20]
  ΔTm: 0.3 °C
[21]
  ΔTm: -0.2 °C
[22]
  ΔTm: 0.8 °C
[23]
  ΔTm: 0 °C
[24]
  ΔTm: 0.7 °C
[25]
  ΔTm: 0.4 °C
[26]
  ΔTm: 0.9 °C
[27]
  ΔTm: -0.5 °C
[28]
  ΔTm: 0.2 °C
[29]
  ΔTm: 0.7 °C

## Cc1ccc(NC(=O)c2cccc(N(C)C)c2)cc1NC(=O)c1ccc(O)cc1
[1]
  ΔTm: 0.6 °C
[2]
  ΔTm: 0 °C
[3]
  ΔTm: -0.4 °C
[4]
  ΔTm: -0.1 °C
[5]
  ΔTm: 0.3 °C
[6]
  ΔTm: 0.1 °C
[7]
  ΔTm: 0.6 °C
[8]
  ΔTm: 0.2 °C
[9]
  ΔTm: 0.4 °C
[10]
  ΔTm: -0.2 °C
[11]
  ΔTm: 0.9 °C
[12]
  ΔTm: -0.4 °C
[13]
  ΔTm: 0.7 °C
[14]
  ΔTm: -0.3 °C
[15]
  ΔTm: -0.4 °C
[16]
  ΔTm: 0 °C
[17]
  ΔTm: -0.1 °C
[18]
  ΔTm: 0.1 °C
[19]
  ΔTm: 2 °C
[20]
  ΔTm: 0.1 °C
[21]
  ΔTm: -0.1 °C
[22]
  ΔTm: 0.2 °C
[23]
  ΔTm: 0.2 °C
[24]
  ΔTm: 0 °C
[25]
  ΔTm: 0.9 °C
[26]
  ΔTm: 0.9 °C
[27]
  ΔTm: 0.3 °C
[28]
  ΔTm: 0.4 °C
[29]
  ΔTm: 0.3 °C

## N#C/C(=C(/N)Sc1ccc(N)cc1)c1ccccc1C(F)(F)F
[1]
  ΔTm: 0.6 °C
[2]
  ΔTm: 0.2 °C
[3]
  ΔTm: 0.3 °C
[4]
  ΔTm: -0.1 °C
[5]
  ΔTm: 0.6 °C
[6]
  ΔTm: 0.6 °C
[7]
  ΔTm: 0.8 °C
[8]
  ΔTm: -0.2 °C
[9]
  ΔTm: 0.8 °C
[10]
  ΔTm: 0.1 °C
[11]
  ΔTm: 0 °C
[12]
  ΔTm: -0.2 °C
[13]
  ΔTm: 1.1 °C
[14]
  ΔTm: 0.4 °C
[15]
  ΔTm: -0.2 °C
[16]
  ΔTm: 0.1 °C
[17]
  ΔTm: -0.8 °C
[18]
  ΔTm: 0.1 °C
[19]
  ΔTm: 0.5 °C
[20]
  ΔTm: -5 °C
[21]
  ΔTm: 0.5 °C
[22]
  ΔTm: 0.3 °C
[23]
  ΔTm: -0.1 °C
[24]
  ΔTm: 0.4 °C
[25]
  ΔTm: 0.3 °C
[26]
  ΔTm: -0.2 °C
[27]
  ΔTm: 0 °C
[28]
  ΔTm: 0.5 °C
[29]
  ΔTm: 0.4 °C

## c1ccc(-c2n[nH]c3c2oc2ccccc23)cc1
[1]
  ΔTm: 0.3 °C
[2]
  ΔTm: 1 °C
[3]
  ΔTm: 0.6 °C
[4]
  ΔTm: 1.1 °C
[5]
  ΔTm: 0.5 °C
[6]
  ΔTm: 0.3 °C
[7]
  ΔTm: -1.3 °C
[8]
  ΔTm: 2.9 °C
[9]
  ΔTm: -0.4 °C
[10]
  ΔTm: 1.8 °C
[11]
  ΔTm: 1.6 °C
[12]
  ΔTm: 0.1 °C
[13]
  ΔTm: 0.6 °C
[14]
  ΔTm: 1 °C
[15]
  ΔTm: -0.9 °C
[16]
  ΔTm: -0.2 °C
[17]
  ΔTm: 0.5 °C
[18]
  ΔTm: 0.4 °C
[19]
  ΔTm: 0.8 °C
[20]
  ΔTm: 5.2 °C
[21]
  ΔTm: 1.8 °C
[22]
  ΔTm: 1 °C
[23]
  ΔTm: 0.3 °C
[24]
  ΔTm: 1.4 °C
[25]
  ΔTm: 0.7 °C
[26]
  ΔTm: 2.2 °C
[27]
  ΔTm: -0.2 °C
[28]
  ΔTm: 0.6 °C
[29]
  ΔTm: 0.7 °C

## C/C(O)=C(\C#N)C(=O)Nc1cc(Br)ccc1Br
[1]
  ΔTm: 0.4 °C
[2]
  ΔTm: 0.2 °C
[3]
  ΔTm: 0.2 °C
[4]
  ΔTm: 0.2 °C
[5]
  ΔTm: 0.3 °C
[6]
  ΔTm: 0.1 °C
[7]
  ΔTm: 3.8 °C
[8]
  ΔTm: 1.5 °C
[9]
  ΔTm: -0.2 °C
[10]
  ΔTm: 0.5 °C
[11]
  ΔTm: 0.4 °C
[12]
  ΔTm: 0.8 °C
[13]
  ΔTm: 0.2 °C
[14]
  ΔTm: 0 °C
[15]
  ΔTm: 0.7 °C
[16]
  ΔTm: 0.5 °C
[17]
  ΔTm: 0.6 °C
[18]
  ΔTm: -0.1 °C
[19]
  ΔTm: 1.1 °C
[20]
  ΔTm: 0.7 °C
[21]
  ΔTm: -0.3 °C
[22]
  ΔTm: 0.4 °C
[23]
  ΔTm: 0.3 °C
[24]
  ΔTm: -0.1 °C
[25]
  ΔTm: 0.5 °C
[26]
  ΔTm: 1.3 °C
[27]
  ΔTm: -1.1 °C
[28]
  ΔTm: 0 °C
[29]
  ΔTm: 1 °C

## Cc1c2ccncc2c(C)c2c1[nH]c1ccccc12 [ELLIPTECINE]
[1]
  ΔTm: 0.9 °C
[2]
  ΔTm: 6.3 °C
[3]
  ΔTm: 0.2 °C
[4]
  ΔTm: 1.8 °C
[5]
  ΔTm: 0.7 °C
[6]
  ΔTm: 2.2 °C
[7]
  ΔTm: 1.3 °C
[8]
  ΔTm: 3.8 °C
[9]
  ΔTm: 1 °C
[10]
  ΔTm: 6.6 °C
[11]
  ΔTm: 4.1 °C
[12]
  ΔTm: 0.7 °C
[13]
  ΔTm: 0.4 °C
[14]
  ΔTm: 0.4 °C
[15]
  ΔTm: 4.3 °C
[16]
  ΔTm: -0.3 °C
[17]
  ΔTm: 1.8 °C
[18]
  ΔTm: 1.6 °C
[19]
  ΔTm: 0.3 °C
[20]
  ΔTm: 2.3 °C
[21]
  ΔTm: 1.3 °C
[22]
  ΔTm: 0.2 °C
[23]
  ΔTm: 0.3 °C
[24]
  ΔTm: 1.1 °C
[25]
  ΔTm: 2 °C
[26]
  ΔTm: 3.9 °C
[27]
  ΔTm: -0.4 °C
[28]
  ΔTm: 1 °C
[29]
  ΔTm: 1.6 °C
